These results are taken from patent US9527828B2, “Method for expanding hematopoietic stem cells using heterocyclic compound” (Nissan Chemical Industries, Ltd., priority 2007, dated 2016).

The test system of the first experiment is CD34^+CD38^− cells. Kind of experiment: Expansion of CD34+CD38− cells from human cord blood-derived CD34+ cells (Example 2). As to conditions: Homo sapiens, 168 h, 1 μg/mL compound, 50 ng/mL SCF, StemSpan SFEM, 7 days; based on number of CD34+CD38− cells in the absence of compound; read-out: Expansion efficiency. Type of experiment: cell-based. As to the method:
The human cord blood-derived CD34^+ cells collected or purchased in Example 1 were plated on a 24-well plate (TPP) (10000 cells/1/mL/well). As the culture medium, StemSpan SFEM (Stemcell Technologies) containing 50 ng/mL SCF (Peprotech) was used, and Compounds No. 1 to 133 dissolved in dimethyl sulfoxide were added in an amount of 0.1% (v/v) to a final concentration of 1 μg/mL.
After the cells were incubated in liquid culture at 37° C. for 7 days in a CO2 incubator (5% CO2), the number of viable cells was counted by trypan blue assay. The number of CD34^+CD38^− cells was calculated as follows. After the incubation, the cells in the liquid culture was stained with a CD34 antibody (APC, Becton, Dickinson and Company) and a CD38 antibody (PE, Becton, Dickinson and Company), then washed with PBS(−) containing 2% (v/v) FBS and stained with propidium iodide (Sigma-Aldrich Japan) added to a final concentration of 5 μg/mL. The stained cells were analyzed with a flow cytometer JSAN (Bay Bioscience) to determined the proportion of CD34^+CD38^− cells, which was multiplied by the number of viable cells to calculate the number of CD34^+CD38^− cells.
The expansion efficiencies in the presence of 1 μg/mL of compounds based on the number of CD34^+CD38^− cells in the absence of them are shown in Tables 2 and 3 on a scale of A for expansion efficiencies of 10 or greater, B for expansion efficiencies of at least 5 and less than 10, and C for expansion efficiencies of at least 3 and less than 5.
Turning to `C/C(=N\NC(=O)c1ccc(C(=O)Nc2cscn2)s1)c1csc(-c2ccc(Br)cc2)c1O` [compound 6], the fold induction at 1 µg/mL is at least 10.
Take `C/C(=N\NC(=O)c1ccc(C(=O)NCc2ccccc2C(N)=O)s1)c1csc(-c2ccc(Br)cc2)c1O` [compound 101]: the fold induction at 1 µg/mL was at least 10.
With `COc1ccc(-c2scc(/C(C)=N/NC(=O)c3ccc(C(=O)NC(C)c4ccc(NC(C)=O)cc4)s3)c2O)cc1` (centres unmarked) [compound 126], the fold induction at 1 µg/mL is at least 10.
For the compound `C/C(=N\NC(=O)c1ccc(C(=O)NCc2ccccn2)s1)c1csc(-c2cccc(Cl)c2)c1O` [compound 75], the fold induction at 1 µg/mL is 3 to 5.
With `C/C(=N\NC(=O)c1ccc(C(=O)NCc2ccccc2C(N)=O)s1)c1csc(-c2ccc(C(C)(C)C)cc2)c1O` [compound 100], the fold induction at 1 µg/mL lay in the range of 3 to 5.
Consider `CCCN(CC)C(=O)c1ccc(C(=O)N/N=C(\C)c2csc(-c3ccc(Cl)c(Cl)c3)c2O)s1` [compound 85], for which the fold induction at 1 µg/mL fell in the range of 3 to 5.
Consider `C/C(=N\NC(=O)c1ccc(C(=O)NCc2cnccn2)s1)c1csc(-c2ccc(Cl)c(Cl)c2)c1O` [compound 8], for which the fold induction at 1 µg/mL was at least 10.
In the case of `C/C(=N\NC(=O)c1ccc(C(=O)NCc2ccccc2C(N)=O)s1)c1csc(-c2ccc(OC(F)(F)F)cc2)c1O` [compound 104], the fold induction at 1 µg/mL was at least 10.
Same read-out and setting: to `C/C(=N\NC(=O)c1ccc(C(=O)NCCN2CCOCC2)s1)c1csc(-c2ccc(OC(F)(F)F)cc2)c1O` [compound 29] belongs at least 10; to `C/C(=N\NC(=O)c1ccc(C(=O)NC(C)c2ccc(C(N)=O)cc2)s1)c1csc(-c2ccc(Cl)c(Cl)c2)c1O` (centres unmarked) [compound 113], at least 10; to `C/C(=N\NC(=O)c1ccc(C(=O)NC(C)c2ccc(C(N)=O)cc2)s1)c1csc(-c2ccc(C(C)(C)C)cc2)c1O` (centres unmarked) [compound 114], at least 10.
Same read-out and setting: under `C/C(=N\NC(=O)c1ccc(C(=O)NCc2ccccc2C(N)=O)s1)c1csc(-c2ccc(Cl)c(Cl)c2)c1O` [compound 99] stands at least 10; under `CNC(=O)c1ccc(CNC(=O)c2ccc(C(=O)N/N=C(\C)c3csc(-c4ccc(OC)cc4)c3O)s2)cc1` [compound 112], at least 10.
Take `COc1c(/C(C)=N/NC(=O)c2ccc(C(=O)NCc3ccncc3)s2)csc1-c1ccc(Cl)c(Cl)c1` [compound 42]: the fold induction at 1 µg/mL was in the range of 5 to 10.
For `C/C(=N\NC(=O)c1ccc(C(=O)NCc2cn(C)cn2)s1)c1csc(-c2ccc(Cl)cc2)c1O` [compound 132], the fold induction at 1 µg/mL is at least 10.
For `CC(=O)Nc1ccc(C(C)NC(=O)c2ccc(C(=O)N/N=C(\C)c3csc(-c4ccc(OC(F)(F)F)cc4)c3O)s2)cc1` (centres unmarked) [compound 125], the fold induction at 1 µg/mL is at least 10.
Take `C/C(=N\NC(=O)c1ccc(C(=O)NC2CC2)s1)c1csc(-c2ccc(Cl)c(Cl)c2)c1` [compound 21]: the fold induction at 1 µg/mL was at least 10.
Turning to `C/C(=N\NC(=O)c1ccc(C(=O)NC(C)c2ccc(C(N)=O)cc2)s1)c1csc(-c2ccc(Cl)cc2)c1O` (centres unmarked) [compound 117], the fold induction at 1 µg/mL is at least 10.
Take `COCCNC(=O)c1ccc(C(=O)N/N=C(\C)c2csc(-c3ccc(Cl)c(Cl)c3)c2O)s1` [compound 22]: the fold induction at 1 µg/mL lay within 5 to 10.
Take `C/C(=N\NC(=O)c1ccc(C(=O)NCc2ccnn2C)s1)c1csc(-c2ccc(C(F)(F)F)cc2)c1O` [compound 45]: the fold induction at 1 µg/mL lay within 5 to 10.
Same read-out and setting: under `C/C(=N\NC(=O)c1ccc(C(=O)NC(C)C)s1)c1csc(-c2ccc(Cl)cc2)c1O` [compound 77] stands 5 to 10; under `CCCNC(=O)c1ccc(C(=O)N/N=C(\C)c2csc(-c3ccc(Cl)cc3)c2O)s1` [compound 31], at least 10.
With `C/C(=N\NC(=O)c1ccc(C(=O)NCc2ccc(C(N)=O)cc2)s1)c1csc(-c2ccc(Cl)cc2)c1O` [compound 89], the fold induction at 1 µg/mL was at least 10.
For `C/C(=N\NC(=O)c1ccc(C(=O)NCc2cccc(C(N)=O)c2)s1)c1csc(-c2ccc(Br)cc2)c1O` [compound 94], the fold induction at 1 µg/mL is at least 10.
The same measure, in the same setting: under `CCCN(C)C(=O)c1ccc(C(=O)N/N=C(\C)c2csc(-c3ccc(Cl)cc3)c2O)s1` [compound 76] stands 3 to 5.
`COc1ccc(-c2scc(/C(C)=N/NC(=O)c3ccc(C(=O)NC(C)c4ccc(C(N)=O)cc4)s3)c2O)cc1` (centres unmarked) [compound 119]: the fold induction at 1 µg/mL is at least 10.
Regarding `C/C(=N\NC(=O)c1ccc(C(=O)NCc2cc(Cl)no2)s1)c1csc(-c2ccc(Cl)c(Cl)c2)c1O` [compound 47], the fold induction at 1 µg/mL lay within 5 to 10.
For `C/C(=N\NC(=O)c1ccc(C(=O)NCc2cc(C)on2)s1)c1csc(-c2ccc(Cl)c(Cl)c2)c1O` [compound 38], the fold induction at 1 µg/mL was at least 10.
The same measure, in the same setting: under `C/C(=N\NC(=O)c1ccc(C(=O)NCc2ccncn2)s1)c1csc(-c2ccc(Cl)c(Cl)c2)c1O` [compound 84] stands 5 to 10; under `CCCCCNC(=O)c1ccc(C(=O)N/N=C(\C)c2csc(-c3ccc(Cl)c(Cl)c3)c2O)s1` [compound 69], 3 to 5; under `C/C(=N\NC(=O)c1ccc(C(=O)NCc2cc(C)n(C)n2)s1)c1csc(-c2ccc(Cl)c(Cl)c2)c1O` [compound 2], at least 10.
On the same count and under the same terms, to `CCNC(=O)c1ccc(C(=O)N/N=C(\C)c2csc(-c3ccc(Cl)c(Cl)c3)c2O)s1` [compound 24] belongs 5 to 10.

The test system of the next experiment is CD34^+CD38^− cells. The experiment is described as follows: Expansion of CD34+CD38− cells using cord blood-derived CD34+CD38− cells (Example 6). It counts as cell-based, human. As to conditions: 1 μg/mL compound, CD34+CD38− starting cells, 50 ng/mL SCF, 7 days; based on number of CD34+CD38− cells in the presence of 10 ng/mL TPO. The method, then: The human cord blood-derived CD34^+CD38^− cells collected in Example 1 were plated on a 24-well plate (TPP) (from 3000 to 10000 cells/1 mL/well). As the culture medium, StemSpan SFEM (Stemcell Technologies) containing 50 ng/mL SCF (Peprotech) was used, and TPO (Peprotech) or Compound No. 1, No. 2, No. 4 or No. 6 in dimethyl sulfoxide in an amount of 0.1% (v/v) was added to a final concentration of […] or 1 μg/mL, respectively. After the cells were incubated in liquid culture at 37° C. for 7 days in a CO2 incubator (5% CO2), the number of CD34^+CD38^− cells was calculated in the same manner as in Example 2.
The expansion efficiencies in the presence of 1 μg/mL of the compounds based on the number of CD34^+CD38^− cells in the presence of 10 ng/mL TPO are shown in Table 5.
With `C/C(=N\NC(=O)c1ccc(C(=O)Nc2cscn2)s1)c1csc(-c2ccc(Br)cc2)c1O` [compound 6], the Expansion efficiency is listed as 1.4.
`C/C(=N\NC(=O)c1ccc(C(=O)NCc2cc(C)n(C)n2)s1)c1csc(-c2ccc(Cl)c(Cl)c2)c1O` [compound 2]: the Expansion efficiency was determined as 2.7.

In another experiment the test system is HPP-CFU colony forming cells. The experiment is described as follows: Blood cell colony forming assay, HPP-CFC colonies (Example 5). It counts as cell-based, human. As to conditions: liquid cultures of Example 2 (1 μg/mL compound), 500 cells/dish, MethoCult GF H4435, 12 days, averaged. The method, then:
The effects of Compounds No. 1, No. 2, and No. 4 of the present invention on hematopoietic progenitor cells were measured by blood cell colony forming assay. The liquid cell cultures obtained in Example 2 were poured into 3.5-cm Petri dishes with MethoCult GF H4435 culture medium (Stemcell Technologies) at 500 cells/dish and incubated in a CO2 incubator (5% CO2, 37° C.) for 12 days. The number of HPP-CFC colonies in each plate was counted under a microscope routinely. The assay was carried out at least in duplicate, and the numbers of HPP-CFC colonies were averaged.
`C/C(=N\NC(=O)c1ccc(C(=O)NCc2cc(C)n(C)n2)s1)c1csc(-c2ccc(Cl)c(Cl)c2)c1O` [compound 2]: the “Number of HPP-CFC colonies” value is recorded as 35.
